# Reference: ChEMBL document CHEMBL3407442, “Synthesis and biological evaluation of α-aryl-α-tetralone derivatives as hepatitis C virus inhibitors” (Eur J Med Chem, 2015)
# Experiments:
# Hepatitis C virus [1] = assay: Antiviral activity against HCV genotype 2a infected in human Huh7.5-FGR-JC1-Rluc2A replicon cells assessed as inhibition of viral viral RNA replication incubated for 48 hrs by luciferase reporter gene assay; format: functional, cell-based, Hepacivirus hominis; conditions: Huh-7, 48 h
# [2] = Selectivity index, ratio of CC50 for human Huh7.5 cells to EC50 for HCV genotype 1b infected in human Huh7/Rep-Feo1b replicon cells; design: species or system Huh-7
# Hepatitis C virus [3] = assay: Antiviral activity against HCV genotype 1b infected in human Huh7/Rep-Feo1b replicon cells assessed as inhibition of viral viral RNA replication at 50 uM incubated for 48 hrs by luciferase reporter gene assay; format: functional, Hepacivirus hominis; conditions: Huh-7, 48 h
# Hepatitis C virus [4] = assay: Antiviral activity against HCV genotype 2a infected in human Huh7.5-FGR-JC1-Rluc2A replicon cells assessed as inhibition of viral viral RNA replication at 50 uM incubated for 48 hrs by luciferase reporter gene assay; format: functional, Hepacivirus hominis; conditions: Huh-7, 48 h
# [5] = Selectivity index, ratio of CC50 for human Huh7.5 cells to EC50 for HCV genotype 2a infected in human Huh7.5-FGR-JC1-Rluc2A replicon cells; design: species or system Huh-7
# [6] = Cytotoxicity against human Huh7.5 cells by MTS assay; format: cell-based, Huh-7
# Hepatitis C virus [7] = assay: Antiviral activity against HCV genotype 1b infected in human Huh7/Rep-Feo1b replicon cells assessed as inhibition of viral viral RNA replication incubated for 48 hrs by luciferase reporter gene assay; format: functional, cell-based, Hepacivirus hominis; conditions: Huh-7, 48 h
Compound,EC50 (Hepatitis C virus [1]) [µM],EC50 (Hepatitis C virus [7]) [µM],Ratio CC50/EC50 [2],inhibition at 50 µM (Hepatitis C virus [3]) [%],inhibition at 50 µM (Hepatitis C virus [4]) [%],Ratio CC50/EC50 [5],CC50 [6] [µM]
COc1ccc(C2CCc3c(OC)ccc(OC)c3C2=O)c(OC)c1 (centres undefined),21.5,8.2,<6,73.8,86.2,<2.3,< 50
COc1ccc(C2CCc3ccc(OC)cc3C2=O)c(OC)c1 (centres undefined),15,14.3,<3.5,95.2,97.6,<3.3,< 50
COc1ccccc1C1CCc2ccccc2C1=O (centres undefined),14.3,50.1,2.3,48.4,84.4,8.2,117
COc1ccc(C2CCc3ccccc3C2=O)c(OC)c1 (centres undefined),11,44.3,1.4,55.6,83.9,5.7,63.6
COc1ccccc1C1CCc2c(OC)cccc2C1=O (centres undefined),10.8,48.5,>4.1,51.7,86.6,>18.5,> 200
COc1ccccc1C1CCc2c(O)ccc(OC)c2C1=O (centres undefined),–,–,–,41.2,44,–,> 200

# The next lines start with results.
EC50 (Hepatitis C virus [1]) [µM],EC50 (Hepatitis C virus [7]) [µM],Compound,Ratio CC50/EC50 [2],inhibition at 50 µM (Hepatitis C virus [3]) [%],inhibition at 50 µM (Hepatitis C virus [4]) [%],Ratio CC50/EC50 [5],CC50 [6] [µM]
3.6,29.5,COc1ccc2c(c1)C(=O)C(c1ccccc1OC)CC2 (centres undefined),3.7,85.4,91.8,30.8,111
3.3,7.5,COc1ccc2c(c1)CCC(c1ccc(OC)cc1OC)C2=O (centres undefined),<6.6,89.5,93.4,<15.3,< 50
6.8,8,COc1ccccc1C1CCc2c(OC)ccc(OC)c2C1=O (centres undefined),>24.9,80.6,88.8,>29.5,> 200
10.8,–,COc1cccc2c1CCC(c1ccccc1O)C2=O (centres undefined),–,26.1,86,10.2,111
3.2,12.8,COc1ccc(C2CCc3c(OC)cccc3C2=O)c(OC)c1 (centres undefined),8.2,96.5,99.5,32.6,104
4.3,1.8,COc1ccc(C2CCc3cc(OC)c(OC)cc3C2=O)c(OC)c1 (centres undefined),> 111,89.6,86.8,>46.1,> 200
4.8,42.5,COc1cc2c(cc1OC)C(=O)C(c1ccccc1OC)CC2 (centres undefined),2.9,60.2,79.9,26.2,126
4.4,6.21,COc1ccc(O)c2c1C(=O)C(c1ccccc1OCc1ccccc1)CC2 (centres undefined),<8,99.1,98,<11.3,< 50
1.5,10.6,COc1ccc2c(c1)CCC(c1ccccc1OC)C2=O (centres undefined),14.3,86.4,88.8,101.4,152
